Experiments:
[1] = target: T1, Recombinant STAT3 protein (STAT3(G127-I722)) (Homo sapiens, UniProt P40763); assay: STAT3 Fluorescence Polarization (FP) Assay; format: binding; conditions: STAT3(G127-I722) 25 nM, probe 5-FAM-GpYLPQTV-NH2 2 nM, 45-minute incubation
T1 construct: Recombinant STAT3 protein (STAT3(G127-I722))
Summary of the method: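 STAT3(G127-I722), 25 nM, was mixed with 2 nM 5-FAM-GpYLPQTV-NH2 probe in HEPES pH 7.4 buffer with 1% DMSO and serially diluted compound. FP (mP) was read after 45 min at room temperature. IC50 came from nonlinear regression.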

[2] = target: T2, Recombinant STAT6 protein (STAT6(W123-T658)) (Homo sapiens, UniProt P42226); assay: STAT6 Fluorescence Polarization (FP) Assay; format: binding; conditions: STAT6(W123-T658) 250 nM, probe 5-FAM-ApYKPFQDLI-NH2 2 nM, 45-minute incubation
T2 construct: Recombinant STAT6 protein (STAT6(W123-T658))
T2 sequence (P42226 123-658): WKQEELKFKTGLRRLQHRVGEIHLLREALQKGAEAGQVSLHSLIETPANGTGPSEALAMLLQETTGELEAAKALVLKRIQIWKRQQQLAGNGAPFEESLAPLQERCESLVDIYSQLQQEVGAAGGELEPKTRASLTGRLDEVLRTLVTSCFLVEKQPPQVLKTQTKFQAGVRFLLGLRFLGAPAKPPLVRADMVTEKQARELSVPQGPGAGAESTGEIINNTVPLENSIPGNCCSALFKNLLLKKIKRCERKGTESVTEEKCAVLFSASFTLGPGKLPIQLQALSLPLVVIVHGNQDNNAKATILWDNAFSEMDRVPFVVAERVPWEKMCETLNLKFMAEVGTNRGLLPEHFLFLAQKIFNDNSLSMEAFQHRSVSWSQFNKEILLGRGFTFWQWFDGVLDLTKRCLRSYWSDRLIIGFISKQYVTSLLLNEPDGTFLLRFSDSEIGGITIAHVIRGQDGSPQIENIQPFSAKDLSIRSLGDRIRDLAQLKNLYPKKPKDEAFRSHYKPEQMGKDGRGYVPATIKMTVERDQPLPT
Summary of the method: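 Displacement of a fluorescent phosphotyrosine peptide (5-FAM-ApYKPFQDLI-NH2, 2 nM) from STAT6(W123-T658) (250 nM), 1% DMSO, pH 7.4 HEPES buffer. After 45 min at room temperature, polarization (mP) was plotted versus log compound concentration and fitted by nonlinear regression to give IC50.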

T1 sequence (P40763 127-722): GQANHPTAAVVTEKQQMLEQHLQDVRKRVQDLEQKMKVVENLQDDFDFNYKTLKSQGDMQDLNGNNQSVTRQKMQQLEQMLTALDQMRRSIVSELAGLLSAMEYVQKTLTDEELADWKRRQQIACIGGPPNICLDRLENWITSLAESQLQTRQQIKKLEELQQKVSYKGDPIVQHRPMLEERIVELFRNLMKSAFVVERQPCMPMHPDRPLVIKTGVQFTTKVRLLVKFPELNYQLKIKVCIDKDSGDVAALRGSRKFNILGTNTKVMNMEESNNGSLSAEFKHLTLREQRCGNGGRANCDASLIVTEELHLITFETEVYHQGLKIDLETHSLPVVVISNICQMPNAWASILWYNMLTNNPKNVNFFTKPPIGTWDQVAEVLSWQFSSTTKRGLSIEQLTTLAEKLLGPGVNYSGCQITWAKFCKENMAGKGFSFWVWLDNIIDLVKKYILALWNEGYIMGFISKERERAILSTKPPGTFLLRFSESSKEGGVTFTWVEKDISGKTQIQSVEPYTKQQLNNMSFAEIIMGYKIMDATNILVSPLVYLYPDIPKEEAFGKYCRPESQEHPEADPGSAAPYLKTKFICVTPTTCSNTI

Molecule	IC50 [1] [nM]	IC50 [2] [nM]
Cc1ccc2[nH]nc(C(=O)N3CC[C@H]4CC[C@@H](C(=O)N5C[C@H](c6ccccc6)[C@@H](C#N)C5)N4C(=O)[C@@H](NC(=O)c4ccc5ccc(C(F)(F)P(=O)(O)O)cc5c4)C3)c2c1 (relative stereo) [Compound 236, ((7-(((5S,8S,10aR)-8-((rel-trans)-3-cyano-4-phenylpyrrolidine-1-carbonyl)-3-(5-methyl-1H-indazole-3-carbonyl)-6-oxodecahydropyrrolo[1,2-a][1,5]diazocin-5-yl)carbamoyl)naphthalen-2-yl)difluoromethyl)phosphonic acid]	100 to 1000	≤ 300
Cc1ccc2onc(C(=O)N3CC[C@H]4CC[C@@H](C(=O)N5CCOCC5)N4C(=O)[C@@H](NC(=O)c4ccc5cnc(CP(=O)(O)O)cc5c4)C3)c2c1 [Compound 394, ((6-(((5S,8S,10aR)-3-(5-methylbenzo [d]isoxazole-3-carbonyl)-8-(morpholine-4-carbonyl)-6-oxodecahydropyrrolo [1,2-a][1,5]diazocin-5-yl)carbamoyl)isoquinolin-3-yl)methyl) phosphonic acid]	> 10000	3000 to 30000
COc1ccccc1C1CN(C(=O)[C@@H]2CC[C@@H]3CCN(C(C)=O)C[C@H](NC(=O)c4cc5cc(C(F)(F)P(=O)(O)O)ccc5s4)C(=O)N32)C[C@@H]1C#N (relative stereo) [Compound 144, ((2-(((5S,8S,10aR)-3-acetyl-8-((rel-trans)-3-cyano-4-(2-methoxyphenyl)pyrrolidine-1-carbonyl)-6-oxodecahydropyrrolo[1,2-a][1,5]diazocin-5-yl)carbamoyl)benzo[b]thiophen-5-yl)difluoromethyl)phosphonic acid]	1000 to 10000	≤ 300
CC(=O)N1CC[C@H]2CC[C@@H](C(=O)N3CCC[C@H]3Cc3ccccc3)N2C(=O)[C@@H](NC(=O)c2cc3cc(C(F)(F)P(=O)(O)O)ccc3[nH]2)C1 [Compound 163, ((2-(((5S,8S,10aR)-3-acetyl-8-((S)-2-benzylpyrrolidine-1-carbonyl)-6-oxodecahydropyrrolo[1,2-a][1,5]diazocin-5-yl)carbamoyl)-1H-indol-5-yl)difluoromethyl)phosphonic acid]	1000 to 10000	300 to 3000
CC(=O)N1CC[C@H]2CC[C@@H](C(=O)N(C)c3ccc(OC(F)(F)F)cc3)N2C(=O)[C@@H](NC(=O)c2cc3cc(C(F)(F)P(=O)(O)O)ccc3[nH]2)C1 [Compound 135, ((2-(((5S,8S,10aR)-3-acetyl-8-(methyl(4-(trifluoromethoxy)phenyl)carbamoyl)-6-oxodecahydropyrrolo[1,2-a][1,5]diazocin-5-yl)carbamoyl)-1H-indol-5-yl)difluoromethyl)phosphonic acid]	1000 to 10000	300 to 3000
CC(=O)N1CC[C@H]2CC[C@@H](C(=O)N3C[C@H](C(N)=O)[C@@H](c4ccccc4)C3)N2C(=O)[C@@H](NC(=O)c2cc3cc(C(F)(F)P(=O)(O)O)ccc3s2)C1 (single isomer, unassigned) [Compound 59, ((2-(((5S,8S,10aR)-3-acetyl-8-((3R,4S or 3S,4R)-3-carbamoyl-4-phenylpyrrolidine-1-carbonyl)-6-oxodecahydropyrrolo[1,2-a][1,5]diazocin-5-yl)carbamoyl)benzo[b]thiophen-5-yl)difluoromethyl)phosphonic acid]	1000 to 10000	≤ 300
CNC(=O)[C@@H]1CC[C@@H]2CCN(C(C)=O)C[C@H](NC(=O)c3cc4cc(C(F)(F)P(=O)(O)O)ccc4[nH]3)C(=O)N21 [Compound 36, ((2-(((5S,8S,10aR)-3-acetyl-8-(methylcarbamoyl)-6-oxodecahydropyrrolo[1,2-a][1,5]diazocin-5-yl)carbamoyl)-1H-indol-5-yl)difluoromethyl)phosphonic acid]	1000 to 10000	300 to 3000
CC(=O)N1CC[C@H]2CC[C@@H](C(=O)N(C)c3ccccc3)N2C(=O)[C@@H](NC(=O)c2ccc3cc(P(=O)(O)O)ccc3c2)C1 [Compound 113, (6-(((5S,8S,10aR)-3-acetyl-8-(methyl(phenyl)carbamoyl)-6-oxodecahydropyrrolo[1,2-a][1,5]diazocin-5-yl)carbamoyl)naphthalen-2-yl)phosphonic acid]	> 10000	> 30000
O=C(N[C@H]1CN(C(=O)c2ncn3ccccc23)CC[C@H]2CC[C@@H](C(=O)N3CCOCC3)N2C1=O)c1ccc2ccc(C(F)P(=O)(O)O)cc2c1 (stereo partly drawn) [Compound 357, (fluoro(7-(((5S,8S,10aR)-3-(imidazo[1,5-a]pyridine-1-carbonyl)-8-(morpholine-4-carbonyl)-6-oxodecahydro-pyrrolo[1,2-a][1,5]diazocin-5-yl)carbamoyl)naphthalen-2-yl)methyl)phosphonic acid]	> 10000	300 to 3000
CC(=O)N1CC[C@H]2CC[C@@H](C(=O)Nc3ccc(-c4ccccc4)cc3[N+](=O)[O-])N2C(=O)[C@@H](NC(=O)c2cc3cc(C(F)(F)P(=O)(O)O)ccc3s2)C1 [Compound 178]	100 to 1000	300 to 3000
((2-(((5S,8S,10aR)-8-((3S,4R or 3R,4S)-3-cyano-4-phenylpyrrolidine-1-carbonyl)-3-(2,2-difluoroethyl)-6-oxodecahydropyrrolo[1,2-a][1,5]diazocin-5-yl)carbamoyl)benzo[b]thiophen-5-yl)difluoromethyl)phosphonic acid [Compound 249]	100 to 1000	≤ 300

Second part, the molecule after the results:

IC50 [1] [nM]	IC50 [2] [nM]	Molecule
1000 to 10000	300 to 3000	CC(=O)N1CC[C@H]2CC[C@@H](C(=O)N3CCC(OCc4cncs4)C3)N2C(=O)[C@@H](NC(=O)c2cc3cc(C(F)(F)P(=O)(O)O)ccc3s2)C1 (stereo partly drawn) [Compound 82, ((2-(((5S,8S,10aR)-3-acetyl-6-oxo-8-(3-(thiazol-5-ylmethoxy)pyrrolidine-1-carbonyl)decahydropyrrolo[1,2-a][1,5]diazocin-5-yl)carbamoyl)benzo[b]thiophen-5-yl)difluoromethyl)phosphonic acid]
1000 to 10000	≤ 300	Cc1ccc2[nH]nc(C(=O)N3CC[C@H]4CC[C@@H](C(=O)N(C)C)N4C(=O)[C@@H](NC(=O)c4ccc5ccc(C(F)(F)P(=O)(O)O)cc5c4)C3)c2c1 [Compound 271, ((7-(((5S,8S,10aR)-8-(dimethylcarbamoyl)-3-(5-methyl-1H-indazole-3-carbonyl)-6-oxodecahydropyrrolo[1,2-a][1,5]diazocin-5-yl)carbamoyl)naphthalen-2-yl)difluoromethyl)phosphonic acid]
> 10000	300 to 3000	CC(=O)N1CC[C@H]2CC[C@@H](C(=O)N(C)c3ccc4nnccc4c3)N2C(=O)[C@@H](NC(=O)c2ccc3ccc(C(F)(F)P(=O)(O)O)cc3n2)C1 [Compound 118, ((2-(((5S,8S,10aR)-3-acetyl-8-(cinnolin-6-yl(methyl)carbamoyl)-6-oxodecahydropyrrolo[1,2-a][1,5]diazocin-5-yl)carbamoyl)quinolin-7-yl)difluoromethyl)phosphonic acid]
1000 to 10000	300 to 3000	CC(=O)N1CC[C@H]2CC[C@@H](C(=O)N[C@H]3CCC[C@H]3N)N2C(=O)[C@@H](NC(=O)c2cc3cc(C(F)(F)P(=O)(O)O)ccc3[nH]2)C1 [Compound 31, ((2-(((5S,8S,10aR)-3-acetyl-8-(((1S,2R)-2-aminocyclopentyl)carbamoyl)-6-oxodecahydropyrrolo[1,2-a][1,5]diazocin-5-yl)carbamoyl)-1H-indol-5-yl)difluoromethyl)phosphonic acid]
1000 to 10000	≤ 300	CC(=O)N1CC[C@H]2CC[C@@H](C(=O)N3C[C@@H](C#N)[C@](C)(c4ccccc4)C3)N2C(=O)[C@@H](NC(=O)c2cc3cc(C(F)(F)P(=O)(O)O)ccc3s2)C1 (relative stereo) [Compound 152, ((2-(((5S,8S,10aR)-3-acetyl-8-((rel-trans)-4-cyano-3-methyl-3-phenylpyrrolidine-1-carbonyl)-6-oxodecahydropyrrolo[1,2-a][1,5]diazocin-5-yl)carbamoyl)benzo[b]thiophen-5-yl)difluoromethyl)phosphonic acid]
> 10000	3000 to 30000	CCC(=O)NCCCN(C)C(=O)[C@@H]1CC[C@@H]2CCN(C(C)=O)C[C@H](NC(=O)/C=C(\C)c3ccc(C(F)(F)P(=O)(O)O)cc3)C(=O)N21 [Compound 25, ((4-((E)-4-(((5S,8S,10aR)-3-acetyl-8-(methyl(3-propionamidopropyl)carbamoyl)-6-oxodecahydropyrrolo[1,2-a][1,5]diazocin-5-yl)amino)-4-oxobut-2-en-2-yl)phenyl)difluoromethyl)phosphonic acid]

— patent US20250179103A1, “6-OXODECAHYDROPYRROLO[1,2-A][1,5]DIAZOCINE AND 6-OXODECAHYDRO-4H-PYRROLO[2,1-D][1,5]THIAZOCINE DERIVATIVES AS STAT3 AND STAT6 MODULATORS FOR THE TREATMENT OF CANCER AND INFLAMMATORY CONDITIONS” (Recludix Pharma, Inc., priority 2022, published 2025)
